Paper PMC8287944, “5-Fluorouracil blocks quorum-sensing of biofilm-embedded methicillin-resistant Staphylococcus aureus in mice” (Nucleic Acids Research, 2021)

How the values were obtained:
MRSA ATCC 43300 [1] = experiment: Murine tissue cage (foreign-body) infection model, prophylaxis; assay type: in vivo, Staphylococcus aureus; conditions: C57BL/6 mice; for Effect on biofilm / adherent MRSA / Effect on planktonic MRSA infection: prophylactic treatment; for Effect on biofilm / adherent MRSA: explanted cages 2 days post-infection; for Effect on planktonic MRSA infection: tissue cage fluid 2 days post-infection
Experimental: To evaluate the prophylactic efficacy of 5-FU against MRSA infection, we used our murine model of foreign-body infection, which closely mimics human implant-associated infections. This model of foreign-body infection ([26],[27]) was established with the approval of the Kantonale Veterinaeramt Basel-Stadt, Switzerland (permit no. 1710). Experiments were conducted according to the regulations of Swiss veterinary law and performed in the animal house of the Department of Biomedicine, University Hospital Basel, Switzerland. Healthy wild-type female C57BL/6 mice at 13 weeks of age (JanvierLabs, France) kept under specific pathogen-free conditions (biosafety level 2) were anesthetized, followed by the subcutaneous implantation of sterile cylindrical Teflon tissue cages (8.5 × 1 × 30 mm; volume: 1.9 ml) with 130 regularly spaced holes (Angst + Pfister AG, Zurich, Switzerland). They were housed in a 12 hr light/dark cycle (light from 7 am to 7 pm) in a temperature-controlled room (24°C) with free access to regular mice chow and water. Mice were randomly assigned to experimental groups, which were not involved in previous procedures. The mice were randomized into groups, which were treated as follows: saline (untreated growth control; n = 7), saline with 5.2844 mg/kg DPD (n = 4), 50 mg/kg daptomycin (DAP) (Novartis, Basel, Switzerland) (n = 11), 10 mg/kg 5-FU with and without 50 mg/kg DAP (each n = 8), 40 mg/kg 5-FU with or without 50 mg/kg DAP (n = 16 and n = 13, respectively), 40 mg/kg 5-FU with 1 μM DPD (n = 6), or 40 mg/kg 5-FU with 50 mg/kg DAP and 5.2844 mg/kg DPD (n = 8). DAP was given intraperitoneally immediately before implantation, and 5-FU and DPD was given immediately after implantation directly into the lumen of the cage. Afterwards, the cages were infected with 965 CFU of MRSA 43300. At 2 days post-infection, tissue cage fluid was collected, and the planktonic bacterial load was evaluated by plating on blood agar plates. In additional, mice were sacrificed and the tissue cages were explanted under aseptic conditions. The explanted tissue cages were washed twice with phosphate-buffered saline followed by 30 s vortexing, sonication for 3 min at 130 W and another 30 s vortexing to release adherent bacteria from the biofilm. Quantification of adherent bacteria was performed by plating appropriated dilutions on blood agar plates. To determine the prevention rate, the presence of any re-growth of MRSA was examined by further incubation of the cage in tryptic soy broth (TSB) for 48 h at 37°C. MRSA re-growth represents therapy failure, and the prevention rate was defined as the percentage of cages without growth in each treatment group.
Figure 6. Prophylactic effect of 5-FU against MRSA ATCC 43300 in a murine tissue cage infection model. Read-outs were obtained two days after infection with 965 CFU/cage and treatment with saline, saline with 1 μM AI-2, 50 mg/kg daptomycin (DAP), 10 mg/kg 5-FU with or without 50 mg/kg DAP, 40 mg/kg 5-FU with or without 50 mg/kg DAP or 40 mg/kg 5-FU with 50 mg/kg DAP and 5.2844 mg/kg DPD, as indicated below the panels. (A) Effect on planktonic MRSA 43300 two days post-infection. (B) Effect on adherent MRSA after explantation and sonication. (C) Prevention rate. Values in (A) and (B) are median ± IQR and those in (C) are % ([…]; **P < 0.001; ****P < 0.0001; ns, not significant). TEXT PRINTED IN THE PICTURE: (C) DAP: prevention rate (%): 18 | (C) DAP + 5-FU (10): prevention rate (%): 75 | (C) DAP + 5-FU (40): prevention rate (%): 94 | (C) DAP + 5-FU (40) + DPD: prevention rate (%): 12.5 DOUBTS OF THE COPYIST ABOUT THIS PICTURE: Panel C, DAP, prevention rate: 18 or 16 (small print) / Panel C, DAP + 5-FU (10), prevention rate: 75 or 76 (small print) / Panel C: which treatment belongs to each bar was read from the small +/- grid under the plot, so the column alignment is not fully certain

MRSA ATCC 43300 [2] = test system: MRSA ATCC 43300; parameters: method as in PMID 21576433; conditions: implant-associated MRSA infection model; cited from earlier work
SE 1457 wild type = experiment: AI-2 activity of SE 1457 wild type; assay type: cell-based, Staphylococcus epidermidis; conditions: 1 μM DPD with increasing 5-FU concentrations, 3 h
Experimental: (§1) To confirm that the phenotype could be restored, 1 μM synthetic (S)-4,5-dihydroxy-2,3-pentanedione (DPD) (Biosynth Carbosynth, Staad, Switzerland) was used. After 3 h under static conditions at 37°C, the supernatant was analysed for AI-2 activity with V. harveyi (MM32).
Supplementary Figure 4 | Bioactivity of 5-FU against Staphylococcus epidermidis (SE). a) Quorum-sensing-associated AI-2 activity of SE 1457 grown for 3 h in the presence of different 5-FU concentrations (note log scale). b) Reversing effect of 1 µM DPD on the AI-2-reducing action of 5-FU (dashed line indicates AI-2 baseline of SE 1457 without 5-FU). Values represent 3 biological replicates expressed as mean ± SD (*, p < 0.05; **, p < 0.01).

MRSA ATCC 43300 [3] = experiment: AI-2 activity of MRSA ATCC 43300; assay type: cell-based, Staphylococcus aureus; conditions: 1 μM DPD
Experimental: as §1
Figure 4. Bioactivity of 5-FU against MRSA ATCC 43300. (A) Quorum sensing-associated AI-2 activity of MRSA 43300 grown for 3 h with different 5-FU concentrations. (B) Effect of different 5-FU concentrations on MRSA 43300 growth. (C) Interference with biofilm formation. (D) Effect on adherent MRSA 43300. Data points represent three biological replicates expressed as mean ± SD (**P < 0.01; ***P < 0.001; ****P < 0.0001).
Figure 5. Phenotype restoration with synthetic AI-2 supplementation. AI-2 activity of MRSA ATCC 43300 was evaluated with and without 1 μM DPD in the presence of different 5-FU concentrations. The dashed line indicates the baseline level of AI-2 of MRSA ATCC 43300 in the absence of 5-FU. Values represent 3 biological replicates expressed as mean ± SD (**P < 0.01; ****P < 0.0001).

[4] = test system: AI-2 production by HEK-293AI2 cells expressing MTAN and LuxS; parameters: method as in PMID 29739943; conditions: earlier proof-of-concept study; cited from earlier work

Structure (SMILES) | Effect on biofilm / adherent MRSA (MRSA ATCC 43300 [1]) | Effect on planktonic MRSA infection (MRSA ATCC 43300 [1]) | Clearance rate of daptomycin used alone (MRSA ATCC 43300 [2]) | AI-2 activity of SE 1457 with DPD added to 5-FU (SE 1457 wild type) | Baseline AI-2 activity of MRSA 43300 (MRSA ATCC 43300 [3]) | AI-2 activity of 5-FU-challenged MRSA supplemented with DPD (MRSA ATCC 43300 [3]; MRSA ATCC 43300) | Effect of DPD on prevention rate (MRSA ATCC 43300 [1]; DPD co-administered with 5-FU and DAP) | AI-2 production in HEK cells [4]
CCCCCCCCCC(=O)N[C@@H](Cc1c[nH]c2ccccc12)C(=O)N[C@H](CC(N)=O)C(=O)N[C@@H](CC(=O)O)C(=O)N[C@@H]1C(=O)NCC(=O)N[C@@H](CCCN)C(=O)N[C@@H](CC(=O)O)C(=O)N[C@H](C)C(=O)N[C@@H](CC(=O)O)C(=O)NCC(=O)N[C@H](CO)C(=O)N[C@@H]([C@H](C)CC(=O)O)C(=O)N[C@@H](CC(=O)c2ccccc2N)C(=O)O[C@@H]1C [DAP, daptomycin] | neither 5-FU nor DAP alone was sufficient to contain the infection | failed to clear planktonic MRSA infections | < 20% | – | – | – | – | –
CC(=O)C(=O)[C@@H](O)CO [DPD, (S)-4,5-dihydroxy-2,3-pentanedione] | reversed the 5-FU-dependent inhibition | reversed the 5-FU-dependent inhibition | – | AI-2 activity returned almost to baseline | little influence | counteracted the effect of 5-FU | decreased the prevention rate to the level observed for DAP monotherapy | –
Nc1ncnc2c([C@@H]3N[C@H](CO)[C@@H](O)[C@H]3O)c[nH]c12 [immunicillin-A] | – | – | – | – | – | – | – | significantly decreased
